Where “and” joins values, the source holds several entries; their conditions need not be identical. Equal entries are not always repeated.
What was measured:
[1] = test system: MDA-MB231 human breast cancer cells; experiment: Clonogenic cell survival, MDA-MB231; assay type: cell-based; conditions: for clonogenic cell killing: 100 μM BSO, 1 μM DTPP 24 h, 500 nM AUR 15 min (FIG. 1B)
Experimental: (§1) FIGS. 1A-D: BSO, DTPP and AUR treated SUM159, MDA-MB231 and HMEC Clonogenic survival. In Panel A (SUM 159), B (MDA-MB231) and C(HMEC), 150,000 cells/dish SUM159 or MDA-MB231 and 300,000 cells/dish were plated in 60 mm tissue culture dishes. After 48 hours, cells were given fresh complete HMECs media and treated with 100 μM BSO+/1 μM DTPP for 24 hours. 500 nM AUR were added 15 mins before the trypsinization of cells for clonogenic survival assay. In panel A-C, The error bars represent mean±1 SD of n=1 treatment dishes done in 3 separate experiments where each treatment dish was used to prepare 6-10 replicate cloning dishes for analysis. *p<0.001 as compared to Control. […] Mice growing Sum159 xenograft tumors were treated with 100 μM DTPP in drinking water for 2 weeks followed by i.p. injections of BSO 675 mg/kg followed in 2 hrs with Au 2.7 mg/kg. The day following injections tumors were harvested, digested and stained for ALDH positive cells. Each bar represents an average of at least three tumors. Error bars are SEM. *p<0.05 vs. control.
FIGS. 3A-3B: Clonogenic survival of SUM159 and MDA-MB231 cells treated with BSO, DTPP and AUR in the presence of 20 mM NAC. Asynchronously growing cultures of SUM159 (panel A) and MDA-MB231 (panel B) were plated as described in FIG. 1. After 48 hours, cells were given fresh complete HMECs media and treated with 100 μM BSO+/1 μM DTPP in the presence or absence of 20 mM NAC for 24 hours. 500 nM AUR were added 15 mins before the trypsinization. cells were then collected and plated for clonogenic survival. In panel A, B, The error bars represent mean±1SD of n=1 treatment dishes done in 3 separate experiments where each treatment dish was used to prepare 6-10 replicate cloning dishes for analysis. *p<0.001 as compared to W/O NAC Control. ^p<0.001 as compared to W/NAC Control.
Clonogenic cell survival: To determine whether the DTPP exposure alters the cell proliferation in MDA-MB231, SUM159 and HMECs, 150,000 cells/dish of MDA-MB231 and SUM159 cells, and 300,000 cells/dish HMECs were plated in 60 mm tissue culture dishes. After 48 hours, at 24 hours prior to each clonogenic survival experiment, media in all the dishes were changed to HMECs media and then treated with 100 μM BSO and 1 μM DTPP for 24 h. Cells were treated with AUR for 15 minutes prior to each clonogenic survival experiment. Attached and floating cells in the experimental dishes were collected after trypsinization with 1× trypsin-EDTA (CellGro, Herndon, Va., USA), centrifuged, resuspended in fresh media, and counted using a Coulter counter. Cells were re-plated using appropriate dilutions in their own media and clones were allowed to grow for 14 days in their regular growth media in the presence of 0.1% gentamycin. Cells were then fixed with 70% ethanol and stained with Coomassie blue and colonies of more than 50 cells counted and utilized to calculate clonogenic survival as described (Puck, T. T.; Morkovin, D.; Marcus, P. I.; Cieciura, S. J. Action of x-rays on mammalian cells. II. Survival curves of cells from normal human tissues. J Exp Med 106:485-500; 1957; Spitz, D. R.; Malcolm, R. R.; Roberts, R. J. Cytotoxicity and metabolism of 4-hydroxy-2-nonenal and 2-nonenal in H2O2-resistant cell lines. Do aldehydic by-products of lipid peroxidation contribute to oxidative stress? Biochem J 267:453-459; 1990). […]

HMECs = experiment: MitoSOX red oxidation, HMEC; assay type: cell-based, human
Experimental: FIGS. 4A-4C: MitoSOX oxidation in SUM159, MDA-MB231 and HMECs cells treated with BSO, DTPP and AUR. Asynchronously growing cultures of SUM159 (Panel A) MDA-MB231 (Panel B) and HMECs (Panel C) were plated and treated as described in FIG. 1. Monolayer cultures were harvested and trypsinized, washed once with PBS and labeled 20 minutes with 2 μM MitoSOX (in 0.1% DMSO) in PBS containing 5 mM pyruvate at 37° C. Each sample was then analyzed for the Mean fluorescence Intensity (MFI) of 10,000 cells by flow cytometry. Samples were assayed in triplicate; mean±1 SD of 1 experiment containing 3 treatment dishes per group (n=3), * or ^p<0.001 as compared to Control.
MitoSOX™ red oxidation to estimate mitochondrial superoxide production: To determine if DTPP can alter steady-state levels of superoxide originating from mitochondria in SUM159, MDA-MB231 and HMEC cells, the cationic superoxide sensitive dye, MitoSOX™red (Molecular Probes), was used. Cells were plated and treated as described earlier in clonogenic survival experiment. After the exposure, cells were trypsinized and washed with 5 mM/L pyruvate containing PBS once then labeled with MitoSOX™red (2 μM, in 0.1% DMSO, 20 minutes) at 37° C. After labeling, cells were kept on ice. Samples were analyzed using a FACScan flowcytometer (Becton Dickinson Immunocytometry System, INC., Mountain View, Calif.) (excitation 488 nm, emission 585 nm band-pass filter). The mean fluorescence intensity of 10,000 cells was analyzed in each sample and corrected for autofluorescence from unlabeled cells. The MFI data was normalized to control levels.

[2] = test system: normal human mammary epithelial cells (HMEC); experiment: Clonogenic cell survival, HMEC; assay type: cell-based; conditions: 100 μM BSO, 1 μM DTPP 24 h, 500 nM AUR 15 min
Experimental: as §1
FIG. 2: BSO and AUR treated SUM159 dose response Clonogenic survival. 150,000 cells/dish SUM159 were plated in 60 mm tissue culture dishes. After 48 hours, cells were given fresh complete HMECs media and treated with 100 μM BSO 24 hours. 500 nM AUR were added 15 mins, 30 mins, 45 mins, 1 hr, 1.5 hrs and 3 hrs before the trypsinization. Cells were then collected and plated for clonogenic survival. […]
Clonogenic cell survival: To determine whether the DTPP exposure alters the cell proliferation in MDA-MB231, SUM159 and HMECs, 150,000 cells/dish of MDA-MB231 and SUM159 cells, and 300,000 cells/dish HMECs were plated in 60 mm tissue culture dishes. […] Attached and floating cells in the experimental dishes were collected after trypsinization with 1× trypsin-EDTA (CellGro, Herndon, Va., USA), centrifuged, resuspended in fresh media, and counted using a Coulter counter. […]

CC[PH](CC)(CC)[Au][S][C@@H]1O[C@H](COC(C)=O)[C@@H](OC(C)=O)[C@H](OC(C)=O)[C@H]1OC(C)=O [AUR, S-triethylphosphinegold(I)-2,3,4,6-tetra-O-acetyl-1-thio-β-D-glucopyranoside]
clonogenic cell killing [1]: 50%-55% and 50% | change in MitoSOX oxidation, in words (HMECs): no effects on MitoSOX oxidation | cytotoxicity (clonogenic survival), in words [2]: did not cause any significant cytotoxicity

CCCCS(=N)(=O)CCC(N)C(=O)O [BSO, L-buthionine-[S,R]-sulfoximine, reference compound]
cytotoxicity (clonogenic survival), in words ([1]; 100 μM BSO 24 h): did not cause significantly cytotoxicity | change in MitoSOX oxidation, in words (HMECs): no effects on MitoSOX oxidation | cytotoxicity (clonogenic survival), in words [2]: did not cause any significant cytotoxicity

CCCCCCCCCC[P+](c1ccccc1)(c1ccccc1)c1ccccc1 [DTPP, Decyl-Triphenylphosphonium]
survival fraction (of control cells) in the presence of NAC ([1]; 1 μM DTPP with 20 mM NAC, 24 hrs): at least 70% | decrease in cell survival / survival fraction compared to control ([1]; 100 μM BSO and/or 1 μM DTPP for 24 hours): 70%-80% | clonogenic cell killing [1]: at least 70% | increase in MitoSOX oxidation (HMECs; 1 μM DTPP, 100 μM BSO 24 h, 500 nM AUR 15 min): 10 fold | cytotoxicity (clonogenic survival), in words [2]: did not cause any significant cytotoxicity
